Source: PubChem BioAssay (NCI)
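Where inhibition never reached the appropriate level, the endpoint shown equals the highest concentration tested. Otherwise, values were interpolated linearly from a five-concentration, 48-hour dose response in 96-well plates. The concentration for 50% growth inhibition is given as GI50. TGI denotes the concentration required for complete inhibition of growth.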

Columns and labels:
Test in all cases: inhibition of tumour cell growth, NCI panel, 48 h
HOP-62 NSCLC = tested on: HOP-62 NSCLC
OVCAR-4 ovarian = tested on: OVCAR-4 ovarian
OVCAR-8 ovarian = tested on: OVCAR-8 ovarian
EKVX NSCLC = tested on: EKVX NSCLC
SK-MEL-5 melanoma = tested on: SK-MEL-5 melanoma
U251 CNS = tested on: U251 CNS
UACC-257 melanoma = tested on: UACC-257 melanoma
HCT-116 colon = tested on: HCT-116 colon
OVCAR-5 ovarian = tested on: OVCAR-5 ovarian
M14 melanoma = tested on: M14 melanoma

SMILES	GI50 (HOP-62 NSCLC)	TGI (HOP-62 NSCLC)	GI50 (OVCAR-4 ovarian)	TGI (OVCAR-4 ovarian)	GI50 (OVCAR-8 ovarian)	TGI (OVCAR-8 ovarian)	GI50 (EKVX NSCLC)	TGI (EKVX NSCLC)	GI50 (SK-MEL-5 melanoma)	TGI (SK-MEL-5 melanoma)	GI50 (U251 CNS)	TGI (U251 CNS)	GI50 (UACC-257 melanoma)	TGI (UACC-257 melanoma)	GI50 (HCT-116 colon)	TGI (HCT-116 colon)	GI50 (OVCAR-5 ovarian)	TGI (OVCAR-5 ovarian)	GI50 (M14 melanoma)	TGI (M14 melanoma)
CCOC(=O)C1=C(C)N(Cc2ccc(Cl)cc2Cl)C2(O)C=CC(=O)C3=C(O)c4ccccc4C(=O)C312 (stereo unspecified)	3.56 µM	15 µM	11.5 µM	> 100 µM	7.17 µM	91.2 µM	10.6 µM	47.8 µM	7.38 µM	23.3 µM	3.53 µM	15.8 µM	10.9 µM	61.2 µM	3.19 µM	11.6 µM	9.59 µM	30.1 µM	3.97 µM	69.3 µM
C=C(CO)[C@@H]1CC[C@]2(COC3CCCCO3)CC[C@]3(C)[C@H](CC[C@@H]4[C@@]5(C)C=C(C=O)C(=O)C(C)(C)[C@@H]5CC[C@]43C)[C@@H]12 (stereo partly specified)	1.51 µM	3.23 µM	0.298 µM	0.979 µM	0.356 µM	1.44 µM	0.259 µM	0.856 µM	0.38 µM	1.46 µM	0.209 µM	0.546 µM	0.367 µM	1.61 µM	0.303 µM	1.08 µM	0.232 µM	0.853 µM	0.247 µM	0.672 µM
NS(=O)(=O)NCCNc1nonc1C(=Nc1ccc(F)c(Br)c1)NO	> 100 µM	> 100 µM	32.8 µM	> 100 µM	56.5 µM	> 100 µM	34.8 µM	> 100 µM	31.9 µM	> 100 µM	53.1 µM	> 100 µM	–	–	42.6 µM	> 100 µM	69.4 µM	> 100 µM	28.1 µM	> 100 µM
NS(=O)(=O)c1ccc(N(/C=C/C(=O)C(F)(F)F)Cc2ccc(Cl)cc2)cc1	20 µM	53.8 µM	–	–	24.3 µM	63.1 µM	22.5 µM	49.6 µM	19.2 µM	38 µM	26.5 µM	75.8 µM	24.1 µM	52.8 µM	14.7 µM	28.1 µM	28.7 µM	> 100 µM	21 µM	43.4 µM
CN(CC(=O)Nc1nc2ccccc2[nH]1)S(=O)(=O)c1ccc(Cl)cc1	> 100 µM	> 100 µM	> 100 µM	> 100 µM	95.2 µM	> 100 µM	52.3 µM	> 100 µM	> 100 µM	> 100 µM	> 100 µM	> 100 µM	> 100 µM	> 100 µM	> 100 µM	> 100 µM	> 100 µM	> 100 µM	> 100 µM	> 100 µM
CSc1snc2sc3c(Cl)nnnc3c12	–	31.9 µM	–	29.5 µM	–	21 µM	–	38.6 µM	–	30.7 µM	–	28.6 µM	–	26.8 µM	–	30.9 µM	–	31 µM	–	26.3 µM
